Assay [1] concerns compound 48/80-induced cyanosis, lesions in the glandular area of the stomach and abnormal gastric distension. Particulars: rats injected with compound 48/80; cited from earlier work.
For assay [2], the system named is compound 48/80-induced lethality. Put plainly: Protection of rats from compound 48/80-induced lethality. Particulars: Rattus norvegicus, 4 h, read-out: compound 48/80 lethality test rats-ED50. It counts as in vivo, Male rats of an inbred Wistar strain.
Assay [3] concerns serotonin; compound 48/80-induced gastric lesions. In words: Antagonistic activity on the effects of serotonin in the gastric lesion test (lesions induced by compound 48/80). It counts as in vivo, Male rats of a Wistar inbred strain. The procedure:
Antagonistic activity on the effects of serotonin in the gastric lesion test
Male rats of a Wistar inbred strain, weighing 220-250 g, were starved overnight, water being available ad libitum. The test compounds were administered orally as a solution or as a suspension in aqueous medium. A control rat and a "blank" rat received the test compound. One hour later 5-[4-(diphenylmethyl)-1-piperazinylmethyl]-1-methyl-1H-benzimidazole-2-methanol was administered subcutaneously to all rats at the dose of 2.5 mg/kg.
Four hours after the intravenous injection of compound 48/80, the rats were decapitated and the stomachs were removed. Subsequently the stomachs were inspected for distension and contents (blood, fluid, food) and thoroughly rinsed. The macroscopic lesions were scored from 0 to +++, 0 corresponding to complete absence of visible lesions and the highest score corresponding to reddish rough patches covering more than half the glandular area.

[4] abbreviates: Rattus norvegicus, po; read-out: gastric lesion test ED50.
[5] abbreviates: Rattus norvegicus, po, read-out: gastric lesion test ED50.

Where two headings read alike, the source gives them in different places.

Consider `CN1CCC(=C2c3ccccc3CCc3sccc32)CC1` [pizotifen], for which the “prevention of cyanosis of ears and extremities, lesions in the glandular area of the stomach and abnormal gastric distension” value (shortened to “prevention”) in assay [1] is “prevent completely”.
In the case of `CN1CCC(=C2c3ccccc3C=Cc3ccccc32)CC1` [cyproheptadine], the “prevention” value in assay [1] is on record as “prevent completely”.
Regarding `CN(C)CCCSc1ccccc1NC(=O)/C=C/c1ccccc1` [cinanserin], in assay [1], the “prevention” value is listed as “prevent completely”.
As for `O=C(CCCN1CCC2(CC1)C(=O)NCN2c1ccccc1)c1ccc(F)cc1` [spiperone], the “prevention” value in assay [1] is reported as “prevent completely”.
As to `CN1C[C@H](CNC(=O)OCc2ccccc2)C[C@@H]2c3cccc4c3c(cn4C)C[C@H]21` [metergoline], the “prevention” value in assay [1] is reported as “prevent completely”.
Regarding `CN1CCN2c3ccccc3Cc3ccccc3C2C1` (centres unmarked) [mianserin], in assay [1], the “prevention” value is given as “prevent completely”.
With `NC(=O)C1(N2CCCCC2)CCN(CCCC(=O)c2ccc(F)cc2)CC1` [pipamperone], the “prevention” value in assay [1] was “prevent completely”.
For `CC[C@@H](CO)NC(=O)[C@@H]1C=C2c3cccc4c3c(cn4C)C[C@H]2N(C)C1` [methysergide], the “prevention” value in assay [1] is recorded as “prevent completely”.
With `Brc1ccc(NCCN2CCC(Nc3nc4ccccc4n3Cc3ccccc3)CC2)nc1` [Compound 49], the ED50 turned out to be 0.31 mg/kg in assay [2] and 2.5 mg/kg in assay [3] (setting [4]).
The like results for `CC(=O)N(CCN1CCC(Nc2nc3ccccc3n2Cc2ccc(F)cc2)CC1)c1ncccn1.O=C(O)/C=C/C(=O)O.O=C(O)/C=C/C(=O)O` [Compound 99, N-[2-[4-[[1-[(4-fluorophenyl)methyl]-1H-benzimidazol-2-yl]amino]-1-piperidinyl]ethyl]-N-(2-pyrimidinyl)acetamide (E)-2-butenedioate (1:2)] were, in that order, 0.04 mg/kg and 0.63 mg/kg.
Turning to `CN(CCN1CCC(Nc2nc3ccccc3n2Cc2ccc(F)cc2)CC1)c1ccc(Cl)cn1` [Compound 56], the ED50 in assay [2] was found to be 0.31 mg/kg; in assay [3] (setting [4]), 1.25 mg/kg.
The like results for `Fc1ccc(Cn2c(NC3CCN(CCNc4ncnc5ccccc45)CC3)nc3ccccc32)cc1` were, in that order, 0.08 mg/kg and 2.5 mg/kg.
In the case of `Nc1cc(NCCN2CCC(Nc3nc4ccccc4n3Cc3ccc(F)cc3)CC2)nc(N)n1` [Compound 34], the ED50 turned out to be 0.08 mg/kg in assay [2] and 0.16 mg/kg in assay [3] (setting [4]).
The corresponding values for `c1ccc(Cn2c(NC3CCN(CCNc4ncccn4)CC3)nc3ccccc32)nc1` [Compound 15] are 0.04 mg/kg and 0.63 mg/kg.
Take `Nc1cncnc1NCCN1CCC(Nc2nc3ccccc3n2Cc2ccc(F)cc2)CC1` [Compound 96, N^4-[2-[4-[[1-[(4-fluorophenyl)methyl]-1H-benzimidazol-2-yl]amino]-1-piperidinyl]ethyl]-4,5-pyrimidinediamine]: the ED50 stood at 0.08 mg/kg in assay [2] and 0.02 mg/kg in assay [3] (setting [4]).
The corresponding values for `O=C(O)/C=C/C(=O)O.O=C(O)/C=C/C(=O)O.c1cnc(OCCN2CCC(Nc3nc4ccccc4n3Cc3ccco3)CC2)nc1` [Compound 83, 1-(2-furanylmethyl)-N-[1-[2-(2-pyrimidinyloxy)ethyl]-4-piperidinyl]-1H-benzimidazol-2-amine (E)-2-butenedioate (1:2)] are 0.08 mg/kg and 1.25 mg/kg.
Regarding `O=C(O)/C=C/C(=O)O.O=C(O)/C=C/C(=O)O.c1cnc(NCCN2CCC(Nc3nc4ccccc4n3Cc3cscn3)CC2)nc1` [Compound 72, N-[1-[2-(2-pyrimidinylamino)ethyl]-4-piperidinyl]-1-(4-thiazolylmethyl)-1H-benzimidazol-2-amine (E)-2-butenedioate (1:2)], the ED50 came to 0.02 mg/kg in assay [2] and 0.08 mg/kg in assay [3] (setting [5]).
Regarding `Fc1ccc(Cn2c(NC3CCN(CCNc4ncccc4Cl)CC3)nc3ccccc32)cc1` [Compound 40], the ED50 in assay [2] turned out to be 0.16 mg/kg; in assay [3] (setting [4]), 0.31 mg/kg.
The like results for `COc1ccc(Cn2c(NC3CCN(CCNc4ncccn4)CC3)nc3ccccc32)cc1` [Compound 69, 1-[(4-methoxyphenyl)methyl]-N-[1-[2-(2-pyrimidinylamino)ethyl]-4-piperidinyl]-1H-benzimidazol-2-amine] were, in that order, 0.31 mg/kg and 2.5 mg/kg.
The like results for `Cl.Cl.Fc1ccc(Cn2c(NC3CCN(CCNc4ccnc(Cl)n4)CC3)nc3ccccc32)cc1.O` [Compound 60, N-[1-[2-[(2-chloro-4-pyrimidinyl)amino]ethyl]-4-piperidinyl]-1-[(4-fluorophenyl)methyl]1H-benzimidazol-2-amine dihydrochloride monohydrate] were, in that order, 0.31 mg/kg and 2.5 mg/kg.
For the compound `Fc1ccc(Cn2c(NC3CCN(CCNc4ncccn4)CC3)nc3ncccc32)cc1` [Compound 25, 1-[(4-fluorophenyl)methyl]-N-[1-[2-[(2-pyrimidinyl)amino]ethyl]-4-piperidinyl]-1H-imidazo[4,5-b]pyridin-2-amine], the ED50 in assay [2] was 0.02 mg/kg; in assay [3] (setting [4]), 0.16 mg/kg.
The corresponding values for `Nc1nc(NCCN2CCC(Nc3nc4ccccc4n3Cc3ccc(F)cc3)CC2)ccc1[N+](=O)[O-]` [Compound 63, N^6-[2-[4-[[1-[(4-fluorophenyl)methyl]1H-benzimidazol-2-yl]amino]-1-piperidinyl]ethyl]-3-nitro-2,6-pyridinediamine] are 0.31 mg/kg and 2.5 mg/kg.
With `N#CCN1CCC(Nc2nc3ncccc3n2Cc2ccc(F)cc2)CC1` [Intermediate 79], the ED50 in assay [2] came to 0.16 mg/kg; in assay [3] (setting [4]), 0.63 mg/kg.
For `NC(=O)c1ccc(NCCN2CCC(Nc3nc4ccccc4n3Cc3ccc(F)cc3)CC2)nc1` [Compound 42], the ED50 worked out at 0.04 mg/kg in assay [2] and 0.08 mg/kg in assay [3] (setting [5]).
As for `O.O=c1nc(SCCN2CCC(Nc3nc4ccccc4n3Cc3ccc(F)cc3)CC2)[nH]c2ccccc12` [Compound 92, 2-[2-[4-[[1-[(4-fluorophenyl)methyl]-1H-benzimidazol-2-yl]amino]-1-piperidinyl]ethylthio]-4(1H)-quinazolinone monohydrate], the ED50 in assay [2] amounted to 0.31 mg/kg; in assay [3] (setting [4]), 2.5 mg/kg.
`Nc1c(Cl)ncnc1NCCN1CCC(Nc2nc3ccccc3n2Cc2ccc(F)cc2)CC1` [Compound 31, 6-chloro-N^4-[2-[4-[[1-[(4-fluorophenyl)methyl]-1H-benzimidazol-2-yl]amino]-1-piperidinyl]ethyl]-4,5-pyrimidinediamine]: the ED50 in assay [2] came to 0.16 mg/kg; in assay [3] (setting [4]) it was 1.25 mg/kg.

Values taken from patent US4556660A, “N-(Bicyclic heterocyclyl)-4-piperidinamines” (Janssen Pharmaceutica N.V., priority 1983, dated 1985).
